Read-outs that look alike come from different tables or passages of the source.

One assay has as its system tubulin. Briefly: Tubulin polymerization assay. The assay is classed as biochemical. Also noted: key: a compound showing 0 to 50% inhibition at 20 μM is reported as score 1; Score 2 compounds are defined as compound showing more than 50% inhibition at 20 μM and less than 50% inhibition at 5 μM; a compound showing more than 50% inhibition at 5 μM is reported as score 3. Conditions: tested at 20 μM and 5 μM. The procedure, abridged:
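Cytoskeleton kit tubulin was run in a 10 µl final volume at 37 °C, with fluorescence read every minute for 1 h. Polymerization was taken as the maximum slope (4-point linear regression) and expressed as % of no-compound control. Compounds were tested at 20 µM, then at 5 µM if inhibition exceeded 50%, and scored by % inhibition.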

For a further assay, the system named is PC-3 cells. Description: Antiproliferative activity, Alamar Blue assay, PC-3 cells. The class given is cell-based, human. Conditions: Homo sapiens, PC-3, PC3 cells, read-out: PC3 antiproliferative activity pIC50 (converted). The procedure, abridged: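 Resazurin-based fluorescence (540 nm ex/590 nm em) measured after 4-day compound treatment plus 24 hrs dye incubation at 37° C. Cells plated at 4.5×10^3 cells/ml, adhered 24 hr first. pIC50 from probit-derived IC50 on % viable cells versus untreated, triplicate wells.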
(In general: Alamar Blue is a resazurin reagent that responds to reducing activity.)

In the case of `CCOc1cccc(CC(C)(C#N)c2ccc3cc(CC)c(=O)[nH]c3c2)c1` (centres unmarked) [Compound 285], the tubulin polymerisation score in the assay with tubulin stood at 2. Further, in the assay on PC-3 cells (Alamar Blue), the IC50 was 1580 nM. On to `CCc1cc2ccc(C(C)(C#N)Cc3cccc(NC)n3)cc2[nH]c1=O` (centres unmarked) [Compound 339], for which the tubulin polymerisation score in the assay with tubulin was determined as 2. For the same compound, the IC50 with PC-3 cells (Alamar Blue) was 3160 nM. For the compound `CCc1cc2ccc(C(C)(C#N)Cc3ccc(F)c(F)c3)cc2[nH]c1=O` (centres unmarked) [Compound 281], the IC50 in the assay on PC-3 cells (Alamar Blue) is 1580 nM.

In the assay on tubulin, `Cc1cc2ccc([C@](C)(C#N)C3CCc4ccccc43)cc2[nH]c1=O` (single isomer, unassigned) [Compound 386] showed a tubulin polymerisation score of 2. In the assay on PC-3 cells (Alamar Blue), the IC50 was 200 nM. For `CCc1cc2ccc(C(C)(C#N)Cc3cc(C#N)nc(C)n3)cc2[nH]c1=O` (centres unmarked) [Compound 319], in that order: 2 and 3980 nM.

`CCc1cc2ccc(C(C)(C#N)Cc3cccc(C(=N)NO)c3)cc2[nH]c1=O` (centres unmarked) [Compound 186]: the IC50 with PC-3 cells (Alamar Blue) is 5010 nM. `CCc1cc2c(OC)cc(C(C)(C#N)Cc3nc(OC)cc(OC)n3)cc2[nH]c1=O` (single isomer, unassigned) [Compound 230]: in the assay on tubulin, the tubulin polymerisation score is 1 (a compound showing 0 to 50% inhibition at 20 μM is reported as score 1). Also, the IC50 with PC-3 cells (Alamar Blue) is 2000 nM. Take `CCc1cc2ccc(C(C)(C#N)Cc3c4ccccc4nn3C)cc2[nH]c1=O` (centres unmarked) [Compound 347]: the IC50 in the assay with PC-3 cells is 3980 nM. Turning to `CCc1cc2ccc(C(C)(C#N)Cc3cc(Cl)nc(OC)c3)cc2[nH]c1=O` (centres unmarked) [Compound 351], the IC50 in the assay on PC-3 cells (Alamar Blue) is 501 nM. Take `CCc1cc2ccc(C(C)(C#N)Cc3ccc4c(c3)OC(F)(F)O4)cc2[nH]c1=O` (centres unmarked) [Compound 346]: in the assay on PC-3 cells (Alamar Blue), the IC50 was 3160 nM. With `CCc1cc2ccc(C(C)(C#N)Cc3cc(C(C)C)ccc3OC)cc2[nH]c1=O` (centres unmarked) [Compound 288], the IC50 in the assay on PC-3 cells (Alamar Blue) is 2000 nM. As to `Cc1cc2ccc([C@@](C)(C#N)C3CCc4ccccc43)cc2[nH]c1=O` (single isomer, unassigned) [Compound 385], the IC50 in the assay on PC-3 cells (Alamar Blue) is 10000 nM. On to `CCc1cc2ccc([C@@](C)(C#N)Cc3cccc(C#CCO)c3)cc2[nH]c1=O` (single isomer, unassigned) [Compound 295], for which the tubulin polymerisation score in the assay on tubulin is on record as 1 (a compound showing 0 to 50% inhibition at 20 μM is reported as score 1). Also, the IC50 with PC-3 cells (Alamar Blue) is 10000 nM. Take `CCc1cc2ccc(C(C)(C#N)Cc3cc(C#N)nc(N(C)C)c3)cc2[nH]c1=O` (centres unmarked) [Compound 325]: the IC50 with PC-3 cells was 1260 nM. `Cc1cc2ccc(C(C)(C#N)Cc3cccc(OCC4CCOCC4)c3)cc2[nH]c1=O` (centres unmarked) [Compound 261]: the IC50 with PC-3 cells (Alamar Blue) is 6310 nM.

As to `CCc1cc2ccc(C(C)(C#N)Cc3cccc4[nH]ccc34)cc2[nH]c1=O` (centres unmarked) [Compound 379], the tubulin polymerisation score in the assay with tubulin was determined as 2. In addition, the IC50 with PC-3 cells (Alamar Blue) was 1260 nM.

As to `CCc1cc2ccc(C(C)(C#N)CN3CCC(c4ccccc4)CC3)cc2[nH]c1=O` (centres unmarked) [Compound 375], the tubulin polymerisation score in the assay on tubulin was 1 (a compound showing 0 to 50% inhibition at 20 μM is reported as score 1). Moreover, the IC50 in the assay with PC-3 cells (Alamar Blue) was 1000 nM. Turning to `Cc1cc2ccc(C(C)(C#N)Cc3cccc(I)c3)cc2[nH]c1=O` (centres unmarked) [Compound 256], the IC50 in the assay with PC-3 cells (Alamar Blue) was 1000 nM. Regarding `Cc1cc2ccc(C(C)(C#N)C3CCCc4ccccc43)cc2[nH]c1=O` (centres unmarked) [Compound 404], the IC50 in the assay on PC-3 cells (Alamar Blue) was 3980 nM.

For `CCc1cc2ccc([C@](C)(C#N)Cc3cccc(/C=C/S(C)(=O)=O)c3)cc2[nH]c1=O` (single isomer, unassigned) [Compound 291], the tubulin polymerisation score in the assay with tubulin is listed as 2. Also, the IC50 in the assay on PC-3 cells (Alamar Blue) was 501 nM. As for `CCc1cc2ccc(C(C)(C#N)Cc3cc(N(C)C)nc(N(C)C)n3)cc2[nH]c1=O` (centres unmarked) [Compound 320], the IC50 in the assay on PC-3 cells (Alamar Blue) was 631 nM.

For the compound `CCc1cc2ccc(C(C)(C#N)CNCc3ccc(C#N)cc3)cc2[nH]c1=O` (centres unmarked) [Compound 302], the IC50 with PC-3 cells (Alamar Blue) is 5010 nM. As for `CCc1cc2ccc(C(C)(C#N)COCc3ccccc3)cc2[nH]c1=O` (centres unmarked) [Compound 197], the IC50 with PC-3 cells (Alamar Blue) was 6310 nM.

For `CCc1cc2ccc(C(C)(C#N)Cc3cccc(OC)c3F)cc2[nH]c1=O` (centres unmarked) [Compound 286], in the assay on PC-3 cells (Alamar Blue), the IC50 was 2000 nM. The same measure, in the same setting: the value for `CCc1cc2ccc(C(C)(C#N)Cc3cc(N(C)C)nc(C#N)n3)cc2[nH]c1=O` (centres unmarked) [Compound 317] was 5010 nM. Regarding `CCc1cc2ccc(C(C)(C#N)CN(C)Cc3ccc(C#N)cc3)cc2[nH]c1=O` (centres unmarked) [Compound 300], in the assay with tubulin, the tubulin polymerisation score is on record as 1 (a compound showing 0 to 50% inhibition at 20 μM is reported as score 1). In the assay with PC-3 cells (Alamar Blue), the IC50 is 501 nM. The like results for `CCc1cc2ccc([C@](C)(C#N)Cc3cc(OC)nc(C)n3)cc2[nH]c1=O` (single isomer, unassigned) [Compound 362] were, in that order, 2 and 631 nM. For the compound `CCc1cc2ccc(C(C)(C#N)Cc3cc(N(C)C)nc(OC)n3)cc2[nH]c1=O` (centres unmarked) [Compound 354], in the assay on PC-3 cells (Alamar Blue), the IC50 is 6310 nM.

Regarding `CCc1cc2ccc([C@@](C)(C#N)Cc3cc(OC)nc(C)n3)cc2[nH]c1=O` (single isomer, unassigned) [Compound 361], in the assay on tubulin, the tubulin polymerisation score was 1 (a compound showing 0 to 50% inhibition at 20 μM is reported as score 1). Moreover, the IC50 with PC-3 cells (Alamar Blue) is 10000 nM. `CCc1cc2ccc(C(C)(C#N)Cc3nc(C#N)cc(N(C)C)n3)cc2[nH]c1=O` (centres unmarked) [Compound 318]: the tubulin polymerisation score in the assay with tubulin is reported as 1 (a compound showing 0 to 50% inhibition at 20 μM is reported as score 1). In addition, the IC50 in the assay with PC-3 cells (Alamar Blue) was 631 nM.

Consider `CCc1cc2ccc(C(C)(C#N)Cc3cc(Br)cc4c3OCC4)cc2[nH]c1=O` (centres unmarked) [Compound 378], for which, in the assay on PC-3 cells (Alamar Blue), the IC50 was 794 nM. As for `CCc1cc2ccc(C(C)(C#N)Cc3cccc(/C=N/O)c3)cc2[nH]c1=O` (centres unmarked) [Compound 299], in the assay on PC-3 cells (Alamar Blue), the IC50 is 1000 nM.

Turning to `Cc1cc2ccc([C@](C)(C#N)[C@H]3CCc4ccccc43)cc2[nH]c1=O` [Compound 387], the IC50 in the assay with PC-3 cells (Alamar Blue) was 5010 nM. As for `CCc1cc2ccc(C(C)(C#N)Cc3cc(Cl)nc(C)n3)cc2[nH]c1=O` (centres unmarked) [Compound 365], the IC50 in the assay with PC-3 cells (Alamar Blue) is 631 nM. For the compound `CCc1cc2ccc(C(C)(C#N)Cc3cc(OC)c(OC)c(OC)c3)cc2[nH]c1=O` (centres unmarked) [Compound 289], the tubulin polymerisation score in the assay with tubulin amounted to 2. Moreover, the IC50 with PC-3 cells (Alamar Blue) was 316 nM. As to `Cc1cc2ccc(C(C)(C#N)C3CCc4ccccc43)cc2[nH]c1=O` (centres unmarked) [Compound 392], the IC50 in the assay on PC-3 cells (Alamar Blue) is 794 nM. In the assay with tubulin, `CCc1cc2ccc(C(C)(C#N)Cc3cc(OC)nc(OC)c3)cc2[nH]c1=O` (centres unmarked) [Compound 350] came in with a tubulin polymerisation score of 2. Moreover, the IC50 in the assay with PC-3 cells (Alamar Blue) is 1580 nM. Regarding `CCc1cc2ccc(C(C)(C#N)Cc3cc(C(F)(F)F)ccc3F)cc2[nH]c1=O` (centres unmarked) [Compound 283], the IC50 in the assay with PC-3 cells (Alamar Blue) is 2000 nM. For the compound `Cc1cc2ccc(C(C)(C#N)Cc3cccc(Oc4ccc(F)cc4)c3)cc2[nH]c1=O` (centres unmarked) [Compound 192], the IC50 in the assay with PC-3 cells (Alamar Blue) is 1580 nM. For the compound `CCc1cc2ccc([C@](C)(C#N)CCOc3ccc(C#N)cc3)cc2[nH]c1=O` (single isomer, unassigned) [Compound 275], the IC50 in the assay with PC-3 cells (Alamar Blue) was 10000 nM. `CCc1cc2ccc(C(C)(C#N)Cc3nc(C#N)cc(OC)n3)cc2[nH]c1=O` (centres unmarked) [Compound 313]: in the assay with tubulin, the tubulin polymerisation score amounted to 2. Besides, in the assay with PC-3 cells (Alamar Blue), the IC50 was 251 nM.

Regarding `CCc1cc2ccc(C(C)(C#N)Cc3cc(C#N)nc(OC)c3)cc2[nH]c1=O` (centres unmarked) [Compound 314], the tubulin polymerisation score in the assay with tubulin is on record as 1 (a compound showing 0 to 50% inhibition at 20 μM is reported as score 1). Also, the IC50 in the assay with PC-3 cells was 1000 nM.

The compound `CCc1cc2ccc(C(C)(C#N)Cc3nc(OC)cc(N(C)C)n3)cc2[nH]c1=O` (centres unmarked) [Compound 355] registered a tubulin polymerisation score in the assay with tubulin of 2. Further, the IC50 with PC-3 cells (Alamar Blue) is 398 nM. For `CCc1cc2ccc([C@@](C)(C#N)CCOc3ccc(C#N)cc3)cc2[nH]c1=O` (single isomer, unassigned) [Compound 273], the tubulin polymerisation score in the assay with tubulin amounted to 2. Also, the IC50 with PC-3 cells (Alamar Blue) was 398 nM. Take `CCc1cc2ccc(C(C)(C#N)Cc3cc(N(C)C)nc(C)n3)cc2[nH]c1=O` (centres unmarked) [Compound 322]: the IC50 with PC-3 cells (Alamar Blue) is 2510 nM. For `CCc1cc2ccc(C(C)(C#N)Cc3cccc(C(=O)OC(C)C)c3)cc2[nH]c1=O` (centres unmarked) [Compound 255], the tubulin polymerisation score in the assay on tubulin is 2. Further, in the assay with PC-3 cells (Alamar Blue), the IC50 is 251 nM. In the case of `Cc1cc2ccc(C(C)(C#N)Cc3cccc(C=Cc4ccccc4)c3)cc2[nH]c1=O` (centres unmarked) [Compound 179], in the assay on PC-3 cells (Alamar Blue), the IC50 was 7940 nM. On to `CCc1cc2ccc([C@](C)(C#N)Cc3cccc(C#CCO)c3)cc2[nH]c1=O` (single isomer, unassigned) [Compound 296], for which the tubulin polymerisation score in the assay on tubulin stood at 2. Further, the IC50 in the assay on PC-3 cells (Alamar Blue) was 100 nM. On to `CCc1cc2ccc(C(C)(C#N)Cc3cc(Cl)nc(N(C)C)c3)cc2[nH]c1=O` (centres unmarked) [Compound 323], for which the tubulin polymerisation score in the assay on tubulin worked out at 2. Further, the IC50 in the assay on PC-3 cells (Alamar Blue) is 1000 nM. In the case of `CCc1cc2ccc(C(C)(C#N)Cc3cccc(NC)c3)cc2[nH]c1=O` (centres unmarked) [Compound 257], the IC50 with PC-3 cells (Alamar Blue) is 1580 nM. Take `Cc1cc2ccc(C(C)(C#N)Cc3cccc(Oc4ccccc4)c3)cc2[nH]c1=O` (centres unmarked) [Compound 305]: the IC50 with PC-3 cells (Alamar Blue) is 3160 nM. With `CCc1cc2ccc(C(C)(C#N)Cc3cc(F)ccc3F)cc2[nH]c1=O` (centres unmarked) [Compound 280], in the assay with PC-3 cells (Alamar Blue), the IC50 is 631 nM. With `Cc1cc2ccc(C(C)(C#N)Cc3cccc(/C=C/CCO)c3)cc2[nH]c1=O` (centres unmarked) [Compound 409], the IC50 with PC-3 cells (Alamar Blue) was 501 nM. As to `CCc1cc2ccc(C(C)(C#N)CN3CCN(c4ccc(C#N)cn4)CC3)cc2[nH]c1=O` (centres unmarked) [Compound 377], the tubulin polymerisation score with tubulin is listed as 1 (a compound showing 0 to 50% inhibition at 20 μM is reported as score 1). Besides, the IC50 in the assay on PC-3 cells (Alamar Blue) was 794 nM.

The values above are taken from patent US8778966B2, “Quinolinone derivatives as PARP and tank inhibitors” (Janssen Pharmaceutica, NV, priority 2007, dated 2014).
